The values that follow come from patent US20100121048A1, “Cyclic Amine Compound and Use Thereof for the Prophylaxis or Treatment of Hypertension” (priority 2006, published 2010).

This assay concerns the target T1, Human renin (Homo sapiens, UniProt P00797).
T1 construct: taking the active type (67-406); made in house; host or cells: FreeStyle 293-F cells (transient expression of pcDNA3.1(+)/hREN)
T1 sequence (P00797 67-406): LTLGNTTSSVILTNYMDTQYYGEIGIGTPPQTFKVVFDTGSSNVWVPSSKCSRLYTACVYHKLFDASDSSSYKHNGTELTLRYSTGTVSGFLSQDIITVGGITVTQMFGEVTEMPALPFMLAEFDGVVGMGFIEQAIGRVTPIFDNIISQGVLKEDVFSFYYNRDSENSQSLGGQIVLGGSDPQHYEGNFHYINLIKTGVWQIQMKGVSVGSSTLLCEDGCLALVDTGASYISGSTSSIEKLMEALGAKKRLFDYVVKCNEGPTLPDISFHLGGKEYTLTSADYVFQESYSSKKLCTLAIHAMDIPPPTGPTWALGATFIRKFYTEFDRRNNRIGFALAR
Description: Measurement of renin inhibition value (human renin, FITC substrate peptide, capillary electrophoresis). Format: biochemical. The settings on record: active type renin (67-406), pH 6.0, 37° C., 30 min; for inhibition at 1 µM: test compound 1 μM, read-out: Human Renin Inhibitory Activity: inhibitory activity (%) at 1 μM; for inhibition at 10 µM: test compound 10 μM, read-out: Human Renin Inhibitory Activity: inhibitory activity (%) at 10 μM. The protocol:
Human renin was obtained by expressing preprorenin (1-406) in an animal cell, treating the prorenin (24-406) contained in the culture supernatant with trypsin, and taking the active type (67-406).
A plasmid DNA to express human renin in HEK293 cells was prepared as follows. PCR was carried out using human renal cDNA (Clontech Laboratories, Inc., Marathon Ready cDNA) as the template and using two synthetic DNAs (5′-[…]-3′ AND 5′-[…]-3′), and the obtained fragments were cloned using a TOPO TA Cloning Kit (Invitrogen Corp.). The obtained fragments were subcloned into pcDNA3.1(+) that had been cleaved by HindIII and BamHI, thus to obtain a plasmid DNA for human preprorenin expression (PcDNA3.1(+)/hREN).
Expression of human preprorenin was conducted using FreeStyle 293 Expression System (Invitrogen Corp.). According to the manual accompanying the FreeStyle 293 Expression System, the plasmid DNA for human preprorenin expression (pcDNA3.1(+)/hREN) constructed in Experimental Example 1 was used to conduct transient expression by FreeStyle 293-F cells. After transfection of the plasmid DNA, the cells were subjected to shaking culture under the conditions of 37° C., 8% CO2 and 125 rpm for 3 days. A 600-ml aliquot of the culture solution was centrifuged at 2,000 rpm for 10 min to recover the culture supernatant containing prorenin (24-406). The culture supernatant was concentrated by ultrafiltration using a PM10 membrane (Millipore, Inc.) to a volume of about 50 ml, and then was dialyzed against 20 mM Tris-hydrochloric acid (pH 8.0). The dialyzate was fed to a 6-ml RESOURCE Q column (Amersham Biosciences, Inc.) equilibrated with 20 mM Tris-hydrochloric acid (pH 8.0) at a flow rate of 3 ml/min to adsorb the prorenin (24-406). After washing the column with the buffer solution used in the equilibration, elution was carried out by means of a linear concentration gradient of sodium chloride from 0 M to 0.4 M. The fraction containing prorenin (24-406) was collected and concentrated using Vivaspin 20 (molecular weight cut off 10,000; Vivascience, Inc.) to a volume of about 2 ml.
The concentrated liquid was subjected to gel filtration chromatography using HiLoad 16/60 Superdex 200 pg (Amersham Biosciences, Inc.) equilibrated with 20 mM Tris-hydrochloric acid (pH 8.0) containing 0.15 M sodium chloride, at a flow rate of 1.4 ml/min, thus to obtain 3.6 mg of purified prorenin (24-406).
To 3.6 mg of prorenin (24-406) was dissolved in 5.2 ml of 0.1 M Tris-hydrochloric acid (pH 8.0), 12 μg of trypsin (Roche Diagnostics Corp.) was added, and the mixture was allowed to react at 28° C. for 55 min to carry out activation of renin. After the reaction, 0.4 ml of immobilized trypsin inhibitor (Pierce Biotechnology, Inc.) was added to remove the trypsin used in the activation by adsorption. The reaction liquid containing the active type renin was concentrated using Vivaspin 20 (molcular weight cut off 10,000; Vivascience, Inc.), and was diluted with 20 mM Tris-hydrochloric acid (pH 8.0). The diluted liquid was fed to a TSKgel DEAE-5 PW column (7.5 mm I.D.×75 mm, Tosoh Corp.) equilibrated with 20 mM Tris-hydrochloric acid (pH 8.0) at a flow rate of 1 ml/min to adsorb the active type renin (67-406). The column was washed with the buffer solution used for the equilibration, and then elution was carried out by means of a sodium chloride linear concentration gradient from 0 M to 0.3 M, thus to obtain 1.5 mg of a purified product of active type renin (67-406).
5 μl each of the test compound (containing 50% DMSO) was added to each well of a 384-well black plate (Nalge Nunc International Co., Ltd.). Renin was diluted with a buffer solution for reaction (20 mM citric acid-sodium citrate (pH 6.0)) to a concentration of 0.5 μg/ml, and 35 μl each of the dilution was added to each well. […]

Take `COc1cccc(-n2cnc(C(=O)N3CCNC[C@H]3Cc3ccccc3)c2-c2ccccc2)c1OC` [Example 57, (2R)-2-benzyl-1-([1-(2,3-dimethoxyphenyl)-5-phenyl-1H-imidazol-4-yl]carbonyl}piperazine]: the inhibition at 1 µM amounted to 108% and the inhibition at 10 µM was determined as 108%.

As for `O=C(c1ncn(C2Cc3ccccc3C2)c1-c1ccccc1)N1CCNC[C@H]1Cc1ccccc1` [Example 73, (2R)-2-benzyl-1-{[1-(2,3-dihydro-1H-inden-2-yl)-5-phenyl-1H-imidazol-4-yl]carbonyl}piperazine], the inhibition at 1 µM was determined as 97% and the inhibition at 10 µM is 101%.

For the compound `COc1nc(C(=O)N2CCNC[C@H]2Cc2ccccc2)c(-c2ccccc2)n1-c1ccccc1` [Example 475, (2R)-2-benzyl-1-[(2-methoxy-1,5-diphenyl-1H-imidazol-4-yl)carbonyl]piperazine], the inhibition at 1 µM turned out to be 97% and the inhibition at 10 µM stood at 99%.

Regarding `COc1ccc(S(=O)(=O)N2CCCC(n3cnc(C(=O)N4CCNC[C@H]4Cc4ccccc4)c3-c3ccccc3)C2)cn1` (stereo partly drawn) [Example 477, (2R)-2-benzyl-1-[(1-{1-[(6-methoxypyridin-3-yl)sulfonyl]piperidin-3-yl}-5-phenyl-1H-imidazol-4-yl)carbonyl]piperazine], the inhibition at 1 µM worked out at 102% and the inhibition at 10 µM amounted to 104%.

`CCCCNc1ccccc1-n1ccc(C(=O)N2CCNCC2Cc2ccccc2)c1-c1ccccc1` (racemic) [Example 99, 2-(3-[(2-benzylpiperazin-1-yl)carbonyl]-2-phenyl-1H-pyrrol-1-yl}-N-butylaniline]: the inhibition at 1 µM stood at 105% and the inhibition at 10 µM stood at 107%.

As to `O=C(c1ncn(C2CCCN(S(=O)(=O)c3ccccc3)C2)c1-c1ccccc1)N1CCNC[C@H]1Cc1ccccc1` (stereo partly drawn) [Example 476, (2R)-2-benzyl-1-({5-phenyl-1-[1-(phenylsulfonyl)piperidin-3-yl]-1H-imidazol-4-yl}carbonyl)piperazine], the inhibition at 1 µM was 99% and the inhibition at 10 µM was 99%.

`O=C(C[C@H](CCc1ccccc1)n1cnc(C(=O)N2CCNC[C@H]2Cc2ccccc2)c1-c1ccccc1)N1CCOCC1` [Example 478, 4-[(3S)-3-(4-{[(2R)-2-benzylpiperazin-1-yl]carbonyl}-5-phenyl-1H-imidazol-1-yl)-5-phenylpentanoyl]morpholine]: the inhibition at 1 µM is 99% and the inhibition at 10 µM amounted to 101%.

For the compound `O=C(O)c1ccc(C[C@@H]2CNCCN2C(=O)c2ncn(-c3cccc(N4CCOCC4)c3)c2-c2ccccc2)cc1` [Example 161, 4-[((2R)-1-{[1-(3-morpholinophenyl)-5-phenyl-1H-imidazol-4-yl]carbonyl}piperazin-2-yl)methyl]benzoic acid], the inhibition at 1 µM is 100% and the inhibition at 10 µM is 101%.

As for `Cc1cc(C(=O)N2CCNC[C@H]2Cc2ccccc2)c(-c2ccccc2)n1-c1cccc(N2CCOCC2)c1` [Example 105, 4-(3-(3-{[(2R)-2-benzylpiperazin-1-yl]carbonyl}-5-methyl-2-phenyl-1H-pyrrol-1-yl)phenyl]morpholine], the inhibition at 1 µM was 102% and the inhibition at 10 µM worked out at 104%.

Consider `O=C(c1ncn(-c2cccc(N3CCOCC3)c2)c1-c1ccccc1)N1CCNC[C@H]1Cc1ccccc1` [Example 56, 4-(3-(4-{[(2R)-2-benzylpiperazin-1-yl]carbonyl}-5-phenyl-1H-imidazol-1-yl)phenyl]morpholine], for which the inhibition at 1 µM worked out at 104% and the inhibition at 10 µM came to 103%.

With `CS(=O)(=O)c1ccc(COC[C@@H]2CNCCN2C(=O)c2ncn(-c3cccc(N4CCOCC4)c3)c2-c2ccccc2)cc1` [Example 472, 4-[3-(4-{[(2S)-2-({[4-(methylsulfonyl)benzyl]oxy}methyl)piperazin-1-yl]carbonyl}-5-phenyl-1H-imidazol-1-yl)phenyl]morpholine], the inhibition at 1 µM amounted to 100% and the inhibition at 10 µM amounted to 102%.

As for `COc1cccc(-n2c(C)cc(C(=O)N3CCNC[C@H]3Cc3ccccc3)c2-c2ccccc2)c1OC` [Example 43, (2R)-2-benzyl-1-{[1-(2,3-dimethoxyphenyl)-5-methyl-2-phenyl-1H-pyrrol-3-yl]carbonyl}piperazine], the inhibition at 1 µM worked out at 104% and the inhibition at 10 µM turned out to be 106%.
